Here are results for 92 molecules from PubChem BioAssay AID1902 (Broad Institute, 2009).

Activity calls are given as the source filed them.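 How the source made its calls: active means EC50 no more than a set limit of log units above the highest dose; inactive means the rest.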 Some results are limits rather than exact numbers.

In this experiment the target is S. pyogenes SKKanGAS, kanamycin survival, BacTiterGlo, 6 h. Kind of experiment: SKKanGAS survival reduction under kanamycin, dose response, streptokinase promoter inhibitor project, SKKanGAS strain, luminescence, dose confirmation (AID 1902).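 Further: lower survival reflects blocked streptokinase promoter driving kanamycin resistance gene.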
As to `Cc1ccc(/C=N/NC(=O)C2=NNC(c3ccccc3)(c3ccccc3)C2)c(O)c1`, the EC50 – broadly, the midpoint of the concentration-response curve – is 4.01 µM.

As for `CC(C)N1CCc2c(sc(NC(=O)CCS(=O)(=O)c3ccccc3)c2C#N)C1`, the EC50 was > 15 µM (inactive).

Turning to `COc1ccc(Cc2[nH]n3c(=O)cc(C(C)C)nc3c2-c2ccccc2)cc1`, the EC50 was 2.33 µM.

As to `O=S(=O)(Nc1ccc(-c2csc(-c3ccccc3)n2)cc1)c1ccc(F)cc1`, the concentration giving a half-maximal response (EC50) was 1.92 µM.

As for `CC1CCC(C(=O)c2c(O)c3ccccc3oc2=O)CC1` (configuration not stated), the EC50 is 5.13 µM.

On to `COc1ccc2[nH]c3c(=O)n(/N=C/c4ccc(OC)c(CN5CCCC5)c4)c(C)nc3c2c1`, for which the EC50 was 7.06 µM.

As for `Cc1onc(-c2ccccc2)c1C(=O)NNC(=S)NC(=O)c1ccc(Cl)cc1Cl`, the half-maximal effective concentration (EC50) is 0.615 µM.

Take `N#C/C(=N\Nc1ccc(S(=O)(=O)N2CCc3ccccc32)cc1)C(N)=S`: the 50% effective concentration (EC50) is 11.3 µM.

`Cc1ccc(/C=C/C(=O)c2ccc([N+](=O)[O-])o2)cc1`: the concentration giving a half-maximal response (EC50) is 5.27 µM.

In the case of `Clc1cc(CSc2ccccc2)nc(-c2ccccc2)n1`, the concentration giving a half-maximal response (EC50) is 8.95 µM.

As for `O=C(Nc1nnc(-c2ccccc2Cl)o1)c1ccc(S(=O)(=O)N2CCCCCC2)cc1`, the EC50 was 0.264 µM.

As to `C=CCn1c(Oc2ccc(C(=O)OC)cc2)nc2c1c(=O)n(C)c(=O)n2C`, the concentration for a half-maximal effect (EC50) is 7.96 µM.

As for `CCC(O)(CC)C(=O)N/N=C/c1cc(Br)cc(Br)c1O`, the concentration giving a half-maximal response (EC50) was 2.64 µM.

For `O=c1cc(-c2ccc([N+](=O)[O-])cc2)nc2cc(-c3ccc(F)cc3)[nH]n12`, the EC50 is 3.48 µM.

Turning to `COc1cccc(C(=O)NC(=S)N2CCN(c3ccc(C(F)(F)F)cc3[N+](=O)[O-])CC2)c1`, the EC50 is > 15 µM (inactive).

On to `O=C(N/N=C/c1cccc(F)c1)c1c(O)c2ccccc2[nH]c1=O`, for which the half-maximal effective concentration (EC50) is 2.54 µM.

For the molecule `C/C(=N\Nc1ccc(Cl)c(Cl)c1)c1ccc(-n2ccnc2)cc1`, the 50% effective concentration (EC50) was 1.86 µM.

As to `COc1cc(/C=N/Nc2ncnc3sc4c(c23)CCC4)ccc1O`, the concentration giving a half-maximal response (EC50) is 2.11 µM.

For the molecule `Cc1ccc(C(=O)NNC(=S)NC(=O)c2ccc(Cl)cc2Cl)cc1`, the concentration giving a half-maximal response (EC50) was 0.09 µM.

On to `CC(C)(C)C1CCC2(CC1)C(C#N)=C(SCC(=O)Nc1ccccc1)NC(=O)C2C#N` (configuration not stated), for which the 50% effective concentration (EC50) is 4.25 µM.

Take `Brc1cc2c(cc1C1Nc3ccccc3C3C=CCC31)OCO2` (configuration not stated): the EC50 was 5.37 µM.

Regarding `COc1ccc(-c2cc3nc(-c4ccccc4)cc(N4CCCC(O)C4)n3n2)cc1` (configuration not stated), the EC50 is 4.3 µM.

For the molecule `CSc1ccc(/C=C/c2ccc3cccc(O)c3n2)cc1`, the half-maximal effective concentration (EC50) is 1.97 µM.

With `COc1ccc(NS(=O)(=O)c2ccc3nc(COc4cccc5ccccc45)[nH]c3c2)cc1`, the EC50 is 5.97 µM.

As for `CC(C)c1ccccc1OCC(O)CN(CC(O)COc1cccc2ccccc12)C(C)C` (configuration not stated), the concentration giving a half-maximal response (EC50) is 4.24 µM.

`CCCCNc1c(-c2ccc(OC)c(SC3CCCCC3)c2)nc2cnccn12`: the EC50 is 3.62 µM.

As for `COc1ccc(-c2csc(NC(=O)c3ccc(C(C)(C)C)cc3)c2C(=O)O)cc1`, the concentration giving a half-maximal response (EC50) is 1.21 µM.

Consider `CCc1ccc(S(=O)(=O)/N=C2\C=C(Nc3ccc(C(=O)O)cc3)C(=O)c3ccccc32)cc1`, for which the EC50 was 0.444 µM.

For `COCC1CCN(C(=O)c2ccc3oc(Cc4ccccc4)nc3c2)C1` (configuration not stated), the EC50 is > 15 µM (inactive).

As to `Cc1cc(COC(=O)C2N3C(=O)[C@@H](NC(=O)COc4ccccc4)[C@H]3SC2(C)C)on1` (some centres not stated), the concentration for a half-maximal effect (EC50) is 0.119 µM.

Turning to `O=C(CN1CCc2ccccc2C1)Nc1ccccc1N1CCCCCC1`, the concentration for a half-maximal effect (EC50) is 2.42 µM.

Regarding `O=C(NC12CC3CC(CC(C3)C1)C2)c1ccc([N+](=O)[O-])o1`, the EC50 was 2 µM.

Regarding `CCCCCCCCOC(=O)c1c(CSC(=N)N)n(C)c2cc(Br)c(OC(C)=O)cc12`, the 50% effective concentration (EC50) is 2.83 µM.

Consider `COc1cccc(/C=N/n2c(N)nc3ccccc32)c1OC`, for which the concentration giving a half-maximal response (EC50) was 5.93 µM.

Consider `Clc1ccc(-c2ccc(/C=N/Nc3cc(N4CCOCC4)nc(N4CCOCC4)n3)o2)cc1`, for which the EC50 was 15.7 µM.

Turning to `O=C1c2ccccc2C2=Nc3ccccc3SC(c3ccccc3F)C12` (configuration not stated), the EC50 was 3 µM.

In the case of `Cc1nn(CC(=O)NC2C(=O)N3C(C(=O)O)=C(CSc4nnnn4C)CSC23)cc1Br` (configuration not stated), the half-maximal effective concentration (EC50) was below 0.06 µM.

Regarding `CC1CCN(C(=O)N2c3ccccc3Sc3ccccc32)CC1`, the half-maximal effective concentration (EC50) was 9.99 µM.

On to `CC(C)(C)c1ccc(C(=O)NCc2nnc(SCC(=O)NC3CCCC3)o2)cc1`, for which the EC50 is > 15 µM (inactive).

For the molecule `CCOC(=O)[C@@H]1[C@H]2COc3ccccc3[C@H]2N2C(=O)N(c3ccc(C(F)(F)F)cc3)C(=O)[C@]12C`, the EC50 is 6.08 µM.

Consider `O=C(Nc1ccccc1)Nc1cc(OCC(F)(F)F)cc(OCC(F)(F)F)c1`, for which the EC50 is 4.78 µM.

In the case of `COc1cccc(C2CC(c3cccs3)=NN2C(=O)CSc2nc3c(cnn3-c3ccc(F)cc3)c(=O)[nH]2)c1OC` (configuration not stated), the EC50 was 2.03 µM.

`O=C(NC(=S)N1CCN(c2ccc(F)cc2)CC1)C12CC3CC(CC(C3)C1)C2`: the 50% effective concentration (EC50) was 11.1 µM.

Take `COc1cc(C(=O)NC(=S)Nc2ccc(NC(=O)c3ccco3)cc2)cc(OC)c1OC`: the EC50 was 8.97 µM.

For `O=C(NC12CC3CC(CC(C3)C1)C2)c1ccc(-c2ccc(Br)cc2)o1`, the EC50 was 11 µM.

For `O=C(CSc1nnc(CNC(=O)c2ccccc2)o1)NCc1ccccc1`, the EC50 was > 15 µM (inactive).

Consider `Cc1cccc(Nc2nc(N)nc(CN3CCN(c4ccc(F)cc4)CC3)n2)c1`, for which the concentration giving a half-maximal response (EC50) was 15.6 µM.

`CCCCCCCCCc1nc2sc3c(c2c(=O)n1NC(=O)c1ccc([N+](=O)[O-])cc1)CC(C)(C)OC3`: the 50% effective concentration (EC50) was 3.5 µM.

On to `CCCCCCCCCCC[N+](C)(C)CC/C=C1/c2ccccc2Sc2ccc(Cl)cc21`, for which the 50% effective concentration (EC50) is 2.4 µM.

For the molecule `COc1ccc(Cn2c(C3CCCCC3)nc3c(c(=O)c4ccccc4n3C)c2=O)cc1`, the concentration giving a half-maximal response (EC50) was 3.2 µM.

Turning to `CCCn1c(C2CCCN2c2nc(-c3cccc(Br)c3)cs2)nc2cc(Cl)c(Cl)cc21` (configuration not stated), the EC50 was 3.68 µM.

Regarding `CCc1ccc2nc(N3C(=O)C(O)=C(C(=O)c4ccco4)C3c3cccs3)sc2c1` (configuration not stated), the 50% effective concentration (EC50) is 1.88 µM.

Take `CCCOc1ccc(C(=O)NC(=S)N2CCN(c3cc4c(cc3F)c(=O)c(C(=O)O)cn4CC)CC2)cc1`: the EC50 is 2.34 µM.

With `CCCc1nc(NCc2ccccc2)c(C#N)c2c1CCCC2`, the EC50 was 2.93 µM.

In the case of `CC1CCN(c2nc3ccccc3nc2C(C#N)C(=O)NC2CCCCC2)CC1` (configuration not stated), the 50% effective concentration (EC50) was 1.9 µM.

As for `Fc1ccc(CO/N=C/C2=C(Cl)c3ccccc3CC2)cc1`, the concentration for a half-maximal effect (EC50) is 3.96 µM.

In the case of `O=C(Nc1ccc(N2CCCC2)c(S(=O)(=O)Nc2cccc(C(F)(F)F)c2)c1)c1cccs1`, the EC50 was 3.95 µM.

Take `Oc1cccc2ccc(/C=C/c3cccs3)nc12`: the EC50 is 2.91 µM.

Consider `CC1=NN(c2ccc([N+](=O)[O-])cc2)C(=O)/C1=C\N(C)C`, for which the 50% effective concentration (EC50) is 7.94 µM.

Turning to `O=C(CSc1ccc(Cl)cc1)NC1=NN(c2ccccc2)C(=O)C1`, the concentration for a half-maximal effect (EC50) was 5.54 µM.

As for `Cc1ccc(C(=O)C(c2ccccc2)N2Cc3ccccc3C2=N)cc1` (configuration not stated), the half-maximal effective concentration (EC50) was 5.75 µM.

As for `CCOc1cc(/C=C\[N+](=O)[O-])ccc1OCC(=O)Nc1ccccc1C`, the EC50 is 9.44 µM.

For `Cc1ccc(-c2cc(-c3cccc(F)c3)n[nH]2)c(O)c1`, the EC50 was 4.32 µM.

In the case of `CCOC(=O)c1sc2ncnc(NCC(c3cccs3)N(C)C)c2c1C` (configuration not stated), the EC50 is 7.95 µM.

As to `COc1ccc(-c2nn(-c3ccccc3)cc2/C=C/C(=O)N2CCN(c3ccccn3)CC2)cc1`, the EC50 was 4.69 µM.

With `COc1cc(Cl)cc(/C=C/c2ccc3cccc(O)c3n2)c1OC`, the EC50 is 0.951 µM.

For `O=C(CSc1ccc(-c2ccc(Cl)cc2)nn1)NC1CCCC1`, the EC50 was > 15 µM (inactive).

As for `Cc1cc(C)c2c(n1)sc1c(=O)n(CC(=O)c3ccccc3)cnc12`, the EC50 is 1.55 µM.

As for `CC(C)/C(=N/Nc1ccccc1[N+](=O)[O-])c1ccccc1`, the half-maximal effective concentration (EC50) is 6.51 µM.

On to `CCOC(=O)Nc1ccc(OCc2nnc3c4ccccc4c(C)nn23)cc1`, for which the EC50 is below 0.06 µM.

Regarding `CC1CCN(C(=O)c2ccc3c(c2)NC(=O)/C(=C/c2ccccc2)S3)CC1`, the EC50 was 2.66 µM.

Take `CC(C)(C)c1ccc(OCC(=O)Nc2ccc(C(=O)Nc3ccccc3C(=O)O)cc2)cc1`: the concentration for a half-maximal effect (EC50) is 1.54 µM.

With `C=CCc1cc(/C=C2/NC(=O)N(CC)C2=O)cc(OCC)c1OCc1ccc(C(=O)O)cc1`, the half-maximal effective concentration (EC50) was 11.9 µM.

As to `Cc1nc(C)c(C(=O)N/N=C/c2cc(Br)ccc2O)s1`, the EC50 is 2 µM.

On to `Cc1nnc(-c2ccccc2)c(=O)n1/N=C/c1c(O)ccc2ccccc12`, for which the EC50 is 4.37 µM.

Turning to `O=C(Nc1ccc2c(c1)CCC2)c1cc(S(=O)(=O)Nc2ccc(F)cc2)c(Cl)cc1Cl`, the EC50 was 4.04 µM.

As for `Cc1cc(S(=O)(=O)NCCC2=CCCCC2)ccc1Br`, the half-maximal effective concentration (EC50) was 5.43 µM.

In the case of `CC1(C)CC(=O)C2=C(C1)c1c(ccc3ccccc13)NC2c1cc([N+](=O)[O-])cc([N+](=O)[O-])c1O` (configuration not stated), the EC50 is 4.55 µM.

`Oc1c(C(c2ccc(Cl)cc2)N2CCCC2)cc(Cl)c2cccnc12` (configuration not stated): the EC50 is 1.53 µM.

As to `CCOC(=O)CC(NC(=O)CCS(=O)(=O)c1ccc2c(c1)n(C)c(=O)c(=O)n2C)c1ccc(C)cc1` (configuration not stated), the EC50 was > 15 µM (inactive).

With `C=C(C)C1Cc2c(C)nn(-c3cccc4ccccc34)c2C1` (configuration not stated), the EC50 is 5.89 µM.

`CC(=O)N(C1=C(Cl)C(=O)c2ccccc2C1=O)C1CCCCC1`: the 50% effective concentration (EC50) is 9.36 µM.

For `O=C(NC(=S)N1CCN(c2ccc(Cl)cc2[N+](=O)[O-])CC1)c1cccs1`, the half-maximal effective concentration (EC50) is 2.75 µM.

Regarding `O=C(CN(c1cccc(Br)c1)S(=O)(=O)c1ccccc1)N/N=C/c1cc([N+](=O)[O-])ccc1O`, the half-maximal effective concentration (EC50) was 0.441 µM.

Take `C[C@H]1CC[C@@]2(C)[C@@H](CC[C@@H]3[C@@H]2CC[C@]2(C)[C@@H](O)CC[C@@H]32)C1`: the EC50 was 0.856 µM.

As for `CC(C)CC(=O)NC(=S)NNC(=O)c1ccc(NC(=O)C2CCCCC2)cc1`, the 50% effective concentration (EC50) was 0.546 µM.

`Cc1ccc(CNC(=S)NC2CCC(C(C)(C)C)CC2)cc1` (configuration not stated): the 50% effective concentration (EC50) was 3.4 µM.

For the molecule `CCN1/C(=C/c2ccc3cc(C)ccc3[n+]2CC)Sc2ccc3sccc3c21`, the EC50 is 2.34 µM.

`Cn1c(Sc2ccccc2Cl)c(C=O)c2ccccc21`: the half-maximal effective concentration (EC50) was 5.92 µM.

Regarding `COc1ccc(Sc2ccc(NC(=O)c3ccccc3Cl)cc2C#N)cc1`, the concentration for a half-maximal effect (EC50) is 2.51 µM.

As for `Cc1cc([N+](=O)[O-])cc(/C=N\NC(=O)C2COc3ccccc3O2)c1O` (configuration not stated), the EC50 was 1.52 µM.

On to `CC(=O)c1sc(N/N=C\c2c(O)ccc3ccccc23)nc1C`, for which the concentration giving a half-maximal response (EC50) is 4.08 µM.
